Source: article PMC9731866, “Structures of a constitutively active mutant of human IDH3 reveal new insights into the mechanisms of allosteric activation and the catalytic reaction” (The Journal of Biological Chemistry, 2022)

Legend:
Format in all cases: binding
[1] = target: T1, αβ heterodimer of HsIDH3 (mutant form αMβ) (Homo sapiens, UniProt O43837+P50213, P50213:Q166A); assay: biolayer interferometry, biotinylated protein on streptavidin sensor
T1 construct: gene IDH3A; coexpressed alpha and beta-TEV-His6 (pQlinkN), E. coli BL21(DE3) Codon-Plus, His6 tag cleaved with TEV; 1:1 heterodimer, mutant is heterotetramer (αMβ)2 of 131-149 kDa
T1 sequence (O43837 35-385 limits assumed, one chain of several): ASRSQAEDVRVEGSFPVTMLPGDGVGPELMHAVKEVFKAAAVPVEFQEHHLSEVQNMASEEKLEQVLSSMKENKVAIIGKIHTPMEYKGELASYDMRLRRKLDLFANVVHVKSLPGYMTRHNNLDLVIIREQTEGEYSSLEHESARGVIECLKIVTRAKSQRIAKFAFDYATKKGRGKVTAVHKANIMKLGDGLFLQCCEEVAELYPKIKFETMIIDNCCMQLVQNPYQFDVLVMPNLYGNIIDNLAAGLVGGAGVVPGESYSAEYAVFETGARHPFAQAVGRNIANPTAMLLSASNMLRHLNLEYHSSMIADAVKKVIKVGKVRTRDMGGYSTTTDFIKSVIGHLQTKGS

[2] = target: T1, αβ heterodimer of HsIDH3 (mutant form αMβ); assay: X-ray crystal structure, […] Å; conditions: Mg2+ at active site; ADP at pseudo-allosteric site of beta subunit
[3] = target: T2, αγ heterodimer of HsIDH3 (mutant form αMγ) (Homo sapiens, UniProt P50213+P51553, P50213:Q166A); assay: X-ray crystal structure, […] Å; conditions: allosteric site of gamma subunit
T2 construct: gene IDH3A; coexpressed alpha and gamma-TEV-His6 (pQlinkN), E. coli BL21(DE3) Codon-Plus, His6 tag cleaved with TEV; 1:1 heterodimer, mutant is heterotetramer (αMγ)2 of 131-149 kDa
T2 sequence (P50213 28-366 Q166A): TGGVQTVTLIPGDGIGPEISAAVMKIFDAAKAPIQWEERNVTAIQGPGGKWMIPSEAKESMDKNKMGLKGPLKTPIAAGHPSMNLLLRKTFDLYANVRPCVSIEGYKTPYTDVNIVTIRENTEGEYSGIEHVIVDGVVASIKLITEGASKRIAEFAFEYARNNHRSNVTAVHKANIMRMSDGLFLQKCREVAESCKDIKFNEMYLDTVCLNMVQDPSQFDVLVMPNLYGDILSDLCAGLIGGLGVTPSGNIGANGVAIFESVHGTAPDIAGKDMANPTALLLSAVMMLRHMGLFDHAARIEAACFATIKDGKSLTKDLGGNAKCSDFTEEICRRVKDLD
T2 sequence (P51553 40-393): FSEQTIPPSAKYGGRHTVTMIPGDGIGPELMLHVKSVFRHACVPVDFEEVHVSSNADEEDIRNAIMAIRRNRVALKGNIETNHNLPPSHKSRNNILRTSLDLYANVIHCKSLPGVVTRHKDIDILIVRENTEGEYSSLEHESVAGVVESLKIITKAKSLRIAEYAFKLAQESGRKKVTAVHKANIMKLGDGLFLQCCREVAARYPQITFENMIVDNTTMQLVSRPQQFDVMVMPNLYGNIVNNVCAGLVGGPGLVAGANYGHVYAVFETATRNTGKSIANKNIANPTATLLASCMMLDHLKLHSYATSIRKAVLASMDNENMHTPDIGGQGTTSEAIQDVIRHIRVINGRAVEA

Kd [1] [µM] | SMILES | X-ray crystal structure, 2.70 Å [2] | X-ray crystal structure, 2.50 Å [3]
522 ± 10 | Nc1ncnc2c1ncn2[C@@H]1O[C@H](COP(=O)(O)OP(=O)(O)O)[C@@H](O)[C@H]1O [ADP] | an ADP bound at the pseudo-allosteric site in the β subunit | 
 | O=C(O)CC(O)(CC(=O)O)C(=O)O [CIT] |  | there is a CIT bound at the allosteric site in the γ subunit
